Values after ≈ are worked out from the molar mass of the structure shown.
Assays:
[1] = test system: Gram-positive cocci; experiment: "In vitro" antimicrobial activity compared with nalidixic acid, Gram-positive cocci; format: cell-based
Description: (§1) Antimicrobial pharmacological activity (G. L. Daquet and Y. A. Chabbect, Techniques en bacteriologie (Techniques in bacteriology), vol. 3, Flammarion Medecine-Sciences, Paris, 1972, and W. B. Hugo and A. D. Rusell, Pharmaceutical Microbiology, Blackwell Scientific Publications, London (1977).
(§2) A streak culture of each of the microorganisms is formed in tubes of antibiotics agar no. 1 and incubated for 20 hours at 37° C. A culture loop is then taken and a culture is formed in a tryptone-soya broth and incubated for 20 hours at 37° C. The resulting culture is diluted to 1/4 with Ringer's physiological solution to give a standardized suspension of 10^5 ufc/ml for each organism.
(§3) Starting from a solution of 1000 μg/ml in 0.1N NaOH, each product is diluted successively in dextrose agar (melted beforehand and kept at 50° C.) to give the following concentrations: 64-32-16-8-4-2-1-0.5-0.25-0.125 μg of derivative/ml of medium.
(§4) After this, each concentration of each product is divided up into Petri dishes of 10 cm diameter at a rate of 10 ml of medium per dish and using as many dishes as there are microorganisms to be tested.
(§5) Once the medium has cooled, the dishes are treated with the inoculations at a rate of 0.4 ml of inoculation per dish. They are spread out with a Drigalski loop and the supernatant is collected. The inoculated dishes are incubated at 37° C. for 20 hours.

[2] = test system: Salmonella typhimurium AMES 98; experiment: "In vitro" MIC, Salmonella typhimurium AMES 98; format: cell-based; settings: Salmonella enterica; Salmonella typhimurium AMES 98; dextrose agar, 37° C., 20 hours; read-out: "In vitro" MIC
Description: as §1
Salmonella typhimurium AMES 98
as §2, §3, §4, §5

[3] = test system: Klebsiella pneumoniae ATCC 10031; experiment: "In vitro" MIC, Klebsiella pneumoniae; format: cell-based; settings: ATCC10031; Klebsiella pneumoniae ATCC 10031; dextrose agar, 37° C., 20 hours; read-out: "In vitro" MIC
Description: as §1
Klebsiella pneumoniae ATCC 10031
as §2, §3, §4, §5

[4] = test system: Shigella flexnerii; experiment: "In vitro" MIC, Shigella flexnerii; format: cell-based; settings: 20 h, read-out: "In vitro" MIC
Description: as §1, §2, §3, §4, §5

[5] = test system: Escherichia coli R-1513; experiment: "In vitro" MIC, Escherichia coli R-1513; format: cell-based; settings: R1513; Escherichia coli R-1513; dextrose agar, 37° C., 20 hours; read-out: "In vitro" MIC
Description: as §1, §2, §3, §4, §5

[6] = test system: Enterobacteriaceae (Pseudomonas aeruginosa); experiment: "In vitro" antimicrobial activity compared with nalidixic acid, Enterobacteriaceae (Pseudomonas aeruginosa); format: cell-based
Description: as §1, §2, §3, §4, §5

[7] = test system: Proteus morganii CHSP-16; experiment: "In vitro" MIC, Proteus morganii; format: cell-based; settings: Morganella morganii, CHSP16; Proteus morganii CHSP-16; dextrose agar, 37° C., 20 hours; read-out: "In vitro" MIC
Description: as §1, §2, §3, §4, §5

[8] = test system: Staphylococcus aureus ATCC 5488/23; experiment: "In vitro" MIC, Staphylococcus aureus ATCC 5488/23; format: cell-based; settings: ATCC5488; Staphylococcus aureus ATCC 5488/23; dextrose agar, 37° C., 20 hours; read-out: "In vitro" MIC
Description: as §1
Staphylococcus aureus ATCC 5488/23
as §2, §3, §4, §5

[9] = test system: Sarcina lutea ATCC 9341; experiment: "In vitro" MIC, Sarcina lutea; format: cell-based; settings: Micrococcus luteus, ATCC9341; Sarcina lutea ATCC 9341; dextrose agar, 37° C., 20 hours; read-out: "In vitro" MIC
Description: as §1, §2, §3, §4, §5

[10] = test system: Micrococcus flavus ATCC 10240; experiment: "In vitro" MIC, Micrococcus flavus; format: cell-based; settings: ATCC10240; Micrococcus flavus ATCC 10240; dextrose agar, 37° C., 20 hours; read-out: "In vitro" MIC
Description: as §1
Micrococcus flavus ATTC 10240
as §2, §3, §4, §5

[11] = test system: Pseudomonas aeruginosa ADSA 47; experiment: "In vitro" MIC, Pseudomonas aeruginosa ADSA 47; format: cell-based; settings: ADSA47; Pseudomonas aeruginosa ADSA 47; dextrose agar, 37° C., 20 hours; read-out: "In vitro" MIC
Description: as §1
Pseudomonas aeruginosa ADSA 47
as §2, §3, §4, §5

[12] = Acute toxicity to mice; settings: mouse, in vivo, ip, suspension in 5% gum arabic, mortality over 7 days
Description: The experimental animals used to determine this toxicity were albino mice of the C.F.L.P. strain and of both sexes, weighing between 19 and 25 grams. After an 18-hour fasting period with water "ad libitum", the derivatives forming the subject of the present invention are administered intraperitoneally as a suspension in 5% gum arabic. The volume of suspension administered was 0.4 ml/20 grams (20 ml/kg) in all cases, the concentration of the suspension being changed according to the dose administered.
One hour after administration of the derivatives, the animals are given a standard Panlab rat-mouse food. The mortality was observed over a period of 7 days. Differences in mortality between the sexes were not observed with any of the products.

[13] = test system: Pseudomonas aeruginosa 25115; experiment: "In vitro" MIC, Pseudomonas aeruginosa 25115; format: cell-based; settings: Pseudomonas aeruginosa 25115; dextrose agar, 37° C., 20 hours; read-out: "In vitro" MIC
Description: as §1
Pseudomonas aeruginosa 25115
as §2, §3, §4, §5

[14] = test system: Bacillus subtilis ATCC 6633; experiment: "In vitro" MIC, Bacillus subtilis; format: cell-based; settings: ATCC6633; Bacillus subtilis ATCC 6633; dextrose agar, 37° C., 20 hours; read-out: "In vitro" MIC
Description: as §1
Bacillus subtilis ATCC 6633
as §2, §3, §4, §5

[15] = test system: Citrobacter freundii ATCC 11606; experiment: "In vitro" MIC, Citrobacter freundii; format: cell-based; settings: ATCC11606; Citrobacter freundii ATCC 11606; dextrose agar, 37° C., 20 hours; read-out: "In vitro" MIC
Description: as §1
Citrobacter freundii ATCC 11606
as §2, §3, §4, §5

[16] = test system: Escherichia coli ATCC 10536; experiment: "In vitro" MIC, Escherichia coli ATCC 10536; format: cell-based; settings: ATCC10536; Escherichia coli ATCC 10536; dextrose agar, 37° C., 20 hours; read-out: "In vitro" MIC
Description: as §1
Escherichia coli ATCC 10536
as §2, §3, §4, §5

[17] = test system: Staphylococcus aureus ATCC 25178; experiment: "In vitro" MIC, Staphylococcus aureus ATCC 25178; format: cell-based; settings: ATCC25178; Staphylococcus aureus ATCC 25178; dextrose agar, 37° C., 20 hours; read-out: "In vitro" MIC
Description: as §1
Staphylococcus aureus ATCC 25178
as §2, §3, §4, §5

[18] = test system: Serratia marcescens ATTC 13880; experiment: "In vitro" MIC, Serratia marcescens; format: cell-based; settings: ATTC13880; Serratia marcescens ATTC 13880; dextrose agar, 37° C., 20 hours; read-out: "In vitro" MIC
Description: as §1
Serratia marcescens ATTC 13880
as §2, §3, §4, §5

[19] = test system: Enterobacter aerogenes ATCC 15038; experiment: "In vitro" MIC, Enterobacter aerogenes; format: cell-based; settings: Klebsiella aerogenes, ATCC15038; Enterobacter aerogenes ATCC 15038; dextrose agar, 37° C., 20 hours; read-out: "In vitro" MIC
Description: as §1
Enterobacter aerogenes ATCC 15038
as §2, §3, §4, §5

[20] = test system: Enterobacter cloacae CHSP-20; experiment: "In vitro" MIC, Enterobacter cloacae; format: cell-based; settings: CHSP20; Enterobacter cloacae CHSP-20; dextrose agar, 37° C., 20 hours; read-out: "In vitro" MIC
Description: as §1
Enterobacter cloacae CHSP-20
as §2, §3, §4, §5

[21] = test system: Streptococcus faecalis ATCC 10541; experiment: "In vitro" MIC, Streptococcus faecalis; format: cell-based; settings: Enterococcus faecalis, ATCC10541; Streptococcus faecalis ATCC 10541; dextrose agar, 37° C., 20 hours; read-out: "In vitro" MIC
Description: as §1
Streptococcus faecalis ATCC 10541
as §2, §3, §4, §5

[22] = test system: Salmonella typhimurium AMES 100; experiment: "In vitro" MIC, Salmonella typhimurium AMES 100; format: cell-based; settings: Salmonella enterica; Salmonella typhimurium AMES 100; dextrose agar, 37° C., 20 hours; read-out: "In vitro" MIC
Description: as §1
Salmonella typhimurium AMES 100
as §2, §3, §4, §5

[23] = test system: Proteus mirabilis ATCC 4675; experiment: "In vitro" MIC, Proteus mirabilis; format: cell-based; settings: ATCC4675; Proteus mirabilis ATCC 4675; dextrose agar, 37° C., 20 hours; read-out: "In vitro" MIC
Description: as §1
Proteus mirabilis ATCC 4675
as §2, §3, §4, §5

| Compound | "in vitro" activity compared with nalidixic acid [1] | MIC [2] | MIC [3] | MIC [4] | MIC [5] | "in vitro" activity compared with nalidixic acid [6] | MIC [7] | MIC [8] | MIC [9] | MIC [10] | MIC [11] | LD50 at 168 h [12] | MIC [13] | MIC [14] | MIC [15] | MIC [16] | MIC [17] | MIC [18] | MIC [19] | MIC [20] | also measured |
| --- | --- | --- | --- | --- | --- | --- | --- | --- | --- | --- | --- | --- | --- | --- | --- | --- | --- | --- | --- | --- | --- |
| CNn1cc(C(=O)O)c(=O)c2cc(F)c(-n3cccc3)cc21 [Example 7, 6-fluoro-7-(pyrrol-1-yl)-1-methylamino-4-oxo-1,4-dihydroquinoline-3-carboxylic acid] | greater "in vitro" activity than nalidixic acid | 0.125 µg/mL (≈ 0.415 µM) | 0.125 µg/mL (≈ 0.415 µM) | 1 µg/mL (≈ 3.32 µM) | 0.5 µg/mL (≈ 1.66 µM) | greater "in vitro" activity than nalidixic acid | 1 µg/mL (≈ 3.32 µM) | 0.25 µg/mL (≈ 0.83 µM) | 4 µg/mL (≈ 13.3 µM) | 4 µg/mL (≈ 13.3 µM) | 16 µg/mL (≈ 53.1 µM) | > 1600 mg/kg | 8 µg/mL (≈ 26.6 µM) | ≤ 0.062 µg/mL | 1 µg/mL (≈ 3.32 µM) | ≤ 0.062 µg/mL | 0.25 µg/mL (≈ 0.83 µM) | 1 µg/mL (≈ 3.32 µM) | 1 µg/mL (≈ 3.32 µM) | 1 µg/mL (≈ 3.32 µM) | MIC [21]: 4 µg/mL (≈ 13.3 µM); MIC [22]: 0.25 µg/mL (≈ 0.83 µM); MIC [23]: 2 µg/mL (≈ 6.64 µM) |
| O=C(O)c1cn(CCO)c2cc(-n3cccc3)c(F)cc2c1=O [Example 2, 6-fluoro-7-(pyrrol-1-yl)-1-(2-hydroxyethyl)-4-oxo-1,4-dihydroquinoline-3-carboxylic acid] | greater "in vitro" activity than nalidixic acid | 0.25 µg/mL (≈ 0.79 µM) | 0.062 µg/mL (≈ 0.196 µM) | 1 µg/mL (≈ 3.16 µM) | 1 µg/mL (≈ 3.16 µM) | greater "in vitro" activity than nalidixic acid | 1 µg/mL (≈ 3.16 µM) | 0.5 µg/mL (≈ 1.58 µM) | 16 µg/mL (≈ 50.6 µM) | 16 µg/mL (≈ 50.6 µM) | ≥ 32 µg/mL | > 1600 mg/kg | 16 µg/mL (≈ 50.6 µM) | ≤ 0.062 µg/mL | 1 µg/mL (≈ 3.16 µM) | 0.125 µg/mL (≈ 0.395 µM) | 0.5 µg/mL (≈ 1.58 µM) | 1 µg/mL (≈ 3.16 µM) | 2 µg/mL (≈ 6.32 µM) | 1 µg/mL (≈ 3.16 µM) | MIC [21]: 1 µg/mL (≈ 3.16 µM); MIC [22]: 0.25 µg/mL (≈ 0.79 µM); MIC [23]: 1 µg/mL (≈ 3.16 µM) |

From US4727080A, “1-substituted derivatives of 6-fluoro-7-(pyrrol-1-yl)-1,4-dihydro-4-oxoquinoline-3-carboxylic acid, their preparation and their application as drugs” (Provesan S.A., priority 1984, dated 1988)
